This is an account of results in US9340551B2, “Inhibitors of bacterial type III secretion system” (MICROBIOTIX, INC., priority 2011, dated 2016).

Each structure is given as a SMILES string. pIC50: −log10 of the molar value. Where two headings read alike, the source gives them in different places. Some results are limits rather than exact numbers.

As usually defined, the melting point is the temperature, or range, at which the solid turns liquid. The pIC50 is −log10 of the IC50, conventionally taken in molar units. For orientation: CC50 means the concentration that lowers cell viability or growth by half.

Data set [1] deals with T3SS-mediated secretion of ExoS′-βLA fusion protein, P. aeruginosa strain MDM973. The data set can be described thus: ExoS′-βLA effector-β-lactamase secretion assay (nitrocefin cleavage). The note with it: for pIC50: Pseudomonas aeruginosa; for Secretion, % @50 μM: Table 4; for performance in T3SS-mediated secretion relative to MBX-1641, in words: α-propyl and α-isopropyl analogs; for inhibition of ExoS′-βLA secretion, in words: FIG. 4, concentration-dependence; for IC50 in the ExoS′βLA assay versus reference inhibitor MBX-1641, in words: FIG. 2.

Data set [2] has as its system T3SS-mediated translocation (ExoU intoxication of CHO cells). The data set can be described thus: Inhibition of P. aeruginosa ExoU-dependent CHO cell killing (LDH release). To be noted: Pseudomonas aeruginosa.
Protocol: Rescue of CHO cells from T3SS-mediated cytotoxicity of translocated effector protein ExoU was measured using a lactate dehydrogenase (LDH) release assay as previously reported (Lee, et al., 2005, Infect. Immun., 73:1695-705) except that infection with P. aeruginosa was carried out for 2 hr in the absence of gentamicin. Percent cytotoxicity (% LDH release) was calculated relative to that of the uninfected control, which was set at 0% LDH release, and that of cells infected with P. aeruginosa unprotected by test compound (100% LDH release). LDH released from unprotected, infected cells reached at least 80% of the value obtained from complete lysis with 1% Triton X-100 in the 2 hr timeframe of this experiment.
Data set [3] is described as follows: Mammalian cytotoxicity (MTS conversion, serum-free medium). The format is cell-based, human. To be noted: human, HeLa cells.
Data set [4] has as its system HeLa cells. The data set is described as above. The format is cell-based, human. The note with it: Table 4; average of 1-20 determinations; read-out: Ave. CC50.
Setting [5] is: read-out: Ave. Translocation IC50.
Setting [6] is: Table 4, average of 1-20 determinations, read-out: Ave. CC50.

`COc1ccc(CNC(=O)C(Oc2ccc(Cl)cc2Cl)C(C)C)cc1` (centres unmarked) [MBX-2148] had a melting point of 77 °C. Further, the pIC50 in data set [1] (read-out: Ave. Secretion IC50) was 3.68.

With `CCCC(Oc1ccc(Cl)cc1Cl)C(=O)NCc1ccc(OC)cc1` (centres unmarked) [MBX-2087], the melting point amounted to 103 °C. Further, in data set [1] (@50 μM), the “Secretion, % @50 μM” value turned out to be 16% @50 μM.

`CCC(Oc1ccc(Cl)cc1Cl)C(=O)NCc1ccc(F)cc1` (centres unmarked) [MBX-2084] showed a melting point of 108 °C. The negative-log IC50 (pIC50) in data set [2] (setting [5]) was 5.13. In data set [1] (read-out: Ave. Secretion IC50), the negative-log IC50 (pIC50) is 5.37. Also, the 50% cytotoxic concentration (CC50) at 3 days in data set [3] (setting [6]) was 45 µM.

In the case of `CC(Oc1ccc(Cl)cc1Cl)C(=O)NCc1ccc2c(c1)OCO2` (racemic) [MBX-1641, N-(benzo[d][1,3]dioxol-5-ylmethyl)-2-(2,4-dichlorophenoxy)propanamide, reference compound], in data set [1] (read-out: Ave. Secretion IC50), the pIC50 was 5.15.

`CCCC(Oc1ccc(Cl)cc1Cl)C(=O)NCc1ccc2c(c1)OCO2` (centres unmarked) [MBX-2085] returned a melting point of 92 °C. Besides, the “Secretion, % @50 μM (printed in the Secretion IC50 column)” value in data set [1] (Table 3, @50 μM) is 14% @50 μM. In addition, the “Secretion, % @50 μM” value in data set [1] (@50 μM) was found to be 14% @50 μM. The “performance in T3SS-mediated secretion relative to MBX-1641, in words” value in data set [1] is reported as “significantly inferior performance”.

`CCC(Oc1ncc(Cl)cc1Cl)C(=O)NCc1ccc2sccc2c1` (centres unmarked) [MBX-2402, N-(benzo[b]thiophen-5-ylmethyl)-2-(3,5-dichloropyridin-2-yloxy)butanamide]: the “inhibition of ExoS′-βLA secretion, in words” value (“inhibition” for short) in data set [1] is listed as “little inhibitory effect”.

`CC(C)C(Oc1ccc(Cl)cc1Cl)C(=O)NCc1ccc(F)cc1` (centres unmarked) [MBX-2149] returned a melting point of 106 °C. Also, the negative logarithm of the IC50 (pIC50) in data set [1] (read-out: Ave. Secretion IC50) is 2.80.

`COc1ccc(CNC(=O)C(Oc2ccc(Cl)cc2Cl)C(C)C)cc1OC` (centres unmarked) [MBX-2147] registered a melting point of 109 °C. The negative logarithm of the IC50 (pIC50) in data set [2] (setting [5]) was below 4.00. In data set [1] (read-out: Ave. Secretion IC50), the pIC50 is 4.02.

Take `CCC(Oc1ccc(Cl)cc1Cl)C(=O)NCc1ccc2c(c1)OCO2` (centres unmarked) [MBX-2081]: the melting point worked out at 112 °C. In addition, in data set [2] (setting [5]), the pIC50 is 5.38. The pIC50 in data set [2] (read-out: Translocation IC50) was 5.38. Also, the “IC50 in the ExoS′βLA assay versus reference inhibitor MBX-1641, in words” value in data set [1] is on record as “improvements”. Moreover, the pIC50 in data set [1] (read-out: Ave. Secretion IC50) was 5.41. For the same molecule, the negative logarithm of the IC50 (pIC50) in data set [1] (read-out: Secretion IC50) was 5.41. Further, the “SI, Selectivity Index (CC50/secretion IC50)” value in data set [1] (Table 3, HeLa CC50 / secretion IC50) is reported as above 50. Also, in data set [1] (α-ethyl analog versus MBX-1641), the “increase in potency as a T3SS inhibitor relative to MBX-1641” value is given as 3-4 fold. Moreover, the CC50 in data set [4] is above 200 µM. The CC50 at 3 days in data set [3] (Table 3, serum-free media, read-out: CC50) was above 200 µM.

For `CCC(Oc1ncc(Cl)cc1Cl)C(=O)NCc1ccc(F)cc1` (centres unmarked) [MBX-2264], the negative-log IC50 (pIC50) is 4.52 in data set [2] (setting [5]) and 5.70 in data set [1] (read-out: Ave. Secretion IC50). Besides, the “IC50 in the ExoS′βLA assay versus reference inhibitor MBX-1641, in words” value in data set [1] is given as “improvements”. Also, in data set [3] (setting [6]), the CC50 at 3 days was 85 µM.

Regarding `COc1ccc(CNC(=O)C(C)Oc2ccc(Cl)cc2Cl)cc1OC` (centres unmarked) [MBX-1942], the melting point is 127 °C.

With `CCC(Oc1ncc(Cl)cc1Cl)C(=O)NCc1ccc2sccc2c1` (centres unmarked) [MBX-2401, N-(benzo[b]thiophen-5-ylmethyl)-2-(3,5-dichloropyridin-2-yloxy)butanamide], the “inhibition” value in data set [1] is on record as “potent inhibition of secretion”.

In turn, `COc1ccc(CNC(=O)C(C)Oc2ccc(Cl)cc2Cl)cc1` (centres unmarked) [MBX-1940] gave a melting point of 77 °C.

On to `CCC(Oc1ncc(Cl)cc1Cl)C(=O)NCc1ccc2c(c1)OCO2` (racemic) [MBX-2263], for which the negative logarithm of the IC50 (pIC50) in data set [2] (setting [5]) was 4.77; in data set [1] (read-out: Ave. Secretion IC50), 5.70. Besides, the “IC50 in the ExoS′βLA assay versus reference inhibitor MBX-1641, in words” value in data set [1] is given as “improvements”. In addition, the “inhibition” value in data set [1] is given as “potent inhibition of secretion”. In data set [3] (setting [6]), the 50% cytotoxic concentration (CC50) at 3 days is above 100 µM.

Molecule `CCC(Oc1ccc(Cl)cc1Cl)C(=O)NCc1ccc(OC)c(OC)c1` (centres unmarked) [MBX-2082] returned a melting point of 117 °C. Also, the pIC50 in data set [2] (setting [5]) is below 4.00. Moreover, the pIC50 in data set [1] (read-out: Ave. Secretion IC50) is 4.79.

As to `CCC(Oc1ncc(Cl)cc1Cl)C(=O)NCc1ccc2sccc2c1` (racemic) [MBX-2359, N-(benzo[b]thiophen-5-ylmethyl)-2-(3,5-dichloropyridin-2-yloxy)butanamide], in data set [1], the “inhibition” value is listed as “potent inhibition of secretion”. Also, the negative-log IC50 (pIC50) in data set [1] (read-out: Ave. Secretion IC50) is 5.82.

`CC(C)C(Oc1ccc(Cl)cc1Cl)C(=O)NCc1ccc2c(c1)OCO2` (centres unmarked) [MBX-2146] registered a melting point of 74 °C. In addition, in data set [1] (read-out: Ave. Secretion IC50), the pIC50 is 4.00. The negative-log IC50 (pIC50) in data set [1] (read-out: Secretion IC50) is 4.00. In addition, the “performance in T3SS-mediated secretion relative to MBX-1641, in words” value in data set [1] was “significantly inferior performance”.

For the molecule `CCC(Oc1ccc(Cl)cc1Cl)C(=O)N(C)Cc1ccc2c(c1)OCO2` (centres unmarked) [MBX-2159], the negative-log IC50 (pIC50) was below 4.00 in data set [2] (setting [5]) and 4.72 in data set [1] (read-out: Ave. Secretion IC50).

With `CCC(Oc1ccc(Cl)cc1Cl)C(=O)NCc1ccc(OC)cc1` (centres unmarked) [MBX-2083], the melting point was 86 °C. In addition, the pIC50 in data set [2] (setting [5]) was 4.53. Besides, the pIC50 in data set [1] (read-out: Ave. Secretion IC50) was 5.09.

For the molecule `CCCC(Oc1ccc(Cl)cc1Cl)C(=O)NCc1ccc(F)cc1` (centres unmarked) [MBX-2088], the “Secretion, % @50 μM” value in data set [1] (@50 μM) is listed as 9% @50 μM.

In the case of `CCCC(Oc1ccc(Cl)cc1Cl)C(=O)NCc1ccc(OC)c(OC)c1` (centres unmarked) [MBX-2086], the melting point stood at 82 °C. Also, the “Secretion, % @50 μM” value in data set [1] (@50 μM) stood at 18% @50 μM.

In the case of `CC(Oc1ccc(Cl)cc1Cl)C(=O)NCc1ccc(F)cc1` (centres unmarked) [MBX-1642], the pIC50 in data set [1] (read-out: Ave. Secretion IC50) is 5.01.
